This is an account of results in US20210340130A1, “Compositions and methods for treating attention deficit disorders” (priority 2016, published 2021).

Entries after “also recorded” stand apart in the source; their conditions may differ.

In series [1] the test system is cyclothiazide binding site. Particulars: cited from earlier work.
For another series, the system named is schizophrenia patients. Particulars: cited from earlier work.
A further series has as its system hippocampal slices. The settings on record: cited from earlier work.
In series [2] the test system is fragile X syndrome patients. Particulars: cited from earlier work.
The next series relates to BDNF production. The settings on record: 16 uM; cited from earlier work.
In series [3] the test system is hippocampal slices (CA1 population spikes). The procedure: Slice Seizure Assay In these studies extracellular field potentials recording (Population Spikes) in hippocampal slices were used to determine convulsant activity (potential seizure liability). Transverse 300-400 μm hippocampal slices were taken from adult male Sprague-Dawley rats (4-6 week old) and incubated in a submerge slice recording chamber system for 30 to 60 min. The chamber was perfused with oxygenated artificial cerebral spinal fluid (ACSF) comprising (in mM): NaCl 124, KCl 3.0, KH2PO4 1.25, CaCl2.34, MgSO4 2.5, NaHCO3 26 and glucose 10 at room temperature. Population Spike (PS) recordings were made with glass electrodes filled with 2 M NaCl (1-5 megaohm) places in the region of pyramidal cell body of CA1. Electrical stimuli were produced with twisted bipolar nichrome wire electrodes in the Schaffer-commissural fiber afferents. Population spike was induced by activating Schaffer-commissural fiber using single pulse stimulation with delivered at 0.05 Hz. The maximal amplitude of PS was determined by increase stimulating intensity till second spike appears. Then the intensity was decreased to induce a 50% to 60% of maximal response. The amplitude of PS was measured for each response and plotted against time. At same time the amplitude of second PS and/or number of PS was measured and plotted against time. The size of the second PS and numbers of PS were used to estimate the seizure potential or seizure state. With 20 to 50 min stable baseline established testing compound was perfused for 10 to 20 min at each concentration to observe the effect. […] The perfusion then was switched to control ACSF and continued to record until drug effect was washed back to the baseline. CX717 and CX1739 exemplary test ampakine compounds were prepared by dissolving in DMSO and then added to ACSF.
The upper 3 panels of FIG. 5 show amplitudes for PS 1, 2 and 3 m respectively. Lower panel is the measurement of the number of PS.

Take `O=C(c1ccc2nccnc2c1)N1CCCCC1` [CX516]: the “binding to the cyclothiazide binding site” value in series [1] is “does not bind to the cyclothiazide binding site”. Also, the “cognition tests versus placebo groups” value in the series with schizophrenia patients (add-on to clozapine, olanzapine or risperidone, weeks 4 or 8) is reported as “did not significantly differ”. Also, in the series with schizophrenia patients (four weeks treatment), the adverse side effects result is “fatigue, epigastric discomfort and insomnia”. Further, the “generalized discharges in hippocampal slices” value in the series on hippocampal slices is recorded as “do not”. The “memory, language use, attention, executive and overall functioning” value in series [2] is reported as “did not exhibit improved memory”.
Take `O=C(c1ccc2c(c1)OCCO2)N1CCCCC1` [CX546]: in series [1], the “binding to the cyclothiazide binding site” value is given as “binds to the cyclothiazide binding site”. For the same compound, in the series on hippocampal slices, the “generalized discharges in hippocampal slices” value was “produce generalized discharges”.
`O=C1c2cc3c(cc2OC2CCCN12)OCCO3` (stereo not shown) [CX614, reference compound]: the “BDNF production in hippocampal slices” value in the series on BDNF production was “significantly increases BDNF production”. In addition, the “seizure / convulsant activity” value in series [3] (16 uM) is “demonstrated seizure potential activity; also recorded: unacceptable convulsant activity”.
Regarding picrotoxin [reference compound], the “seizure activity (population spikes)” value in series [3] (50 μM perfusion) is reported as “induced a seizure like activity at the level of second PS but not third PS”.
